According to paper PMC7265341, “Quantifying CDK inhibitor selectivity in live cells” (Nature Communications, 2020):

What was measured:
[1] = target: CDK1/Cyclin E1 (Homo sapiens, UniProt P06493); experiment: NanoBRET live-cell target engagement, CDK1-NanoLuc/Cyclin E1 in HEK-293; format: binding; settings: CDK1/E1, 10µM
[2] = target: CDK2/Cyclin E1 (Homo sapiens, UniProt P24941); experiment: NanoBRET live-cell target engagement, CDK2-NanoLuc/Cyclin E1 in HEK-293; format: binding; settings: CDK2/E1, 10µM
[3] = target: CDK3/Cyclin E1 (Homo sapiens, UniProt Q00526); experiment: NanoBRET live-cell target engagement, CDK3-NanoLuc/Cyclin E1 in HEK-293; format: binding; settings: CDK3/E1, 10µM
Sequence of CDK3/Cyclin E1 (Q00526 whole entry): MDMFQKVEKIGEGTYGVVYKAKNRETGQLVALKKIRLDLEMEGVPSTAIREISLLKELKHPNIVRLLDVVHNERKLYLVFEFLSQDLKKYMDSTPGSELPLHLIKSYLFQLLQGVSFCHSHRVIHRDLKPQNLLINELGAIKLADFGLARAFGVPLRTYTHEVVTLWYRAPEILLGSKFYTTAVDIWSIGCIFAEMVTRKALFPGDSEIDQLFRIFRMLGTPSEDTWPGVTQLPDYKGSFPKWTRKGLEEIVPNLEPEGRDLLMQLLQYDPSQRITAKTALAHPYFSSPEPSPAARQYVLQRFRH
Sequence of CDK3/Cyclin E1 (P24864 whole entry partner): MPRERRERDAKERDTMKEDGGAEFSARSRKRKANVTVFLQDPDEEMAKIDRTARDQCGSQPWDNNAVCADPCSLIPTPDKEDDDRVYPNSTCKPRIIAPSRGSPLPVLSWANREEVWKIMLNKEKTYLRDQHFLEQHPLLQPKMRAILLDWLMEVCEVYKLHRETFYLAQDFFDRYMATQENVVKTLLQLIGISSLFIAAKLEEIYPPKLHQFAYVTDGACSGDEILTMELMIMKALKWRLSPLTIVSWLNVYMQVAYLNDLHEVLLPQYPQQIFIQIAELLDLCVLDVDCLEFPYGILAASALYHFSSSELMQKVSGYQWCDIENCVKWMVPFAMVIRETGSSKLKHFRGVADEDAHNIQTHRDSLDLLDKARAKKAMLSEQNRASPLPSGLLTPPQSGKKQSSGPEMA

[4] = target: CDK4/Cyclin D1 (Homo sapiens, UniProt P11802); experiment: NanoBRET live-cell target engagement, NanoLuc-CDK4/Cyclin D1 in HEK-293; format: binding; settings: CDK4/D1, 10µM
[5] = target: CDK5/CDK5R1 (Homo sapiens, UniProt Q00535); experiment: NanoBRET live-cell target engagement, CDK5-NanoLuc/CDK5R1 in HEK-293; format: binding; settings: CDK5/CDK5R1, 10µM
Sequence of CDK5/CDK5R1 (Q00535 whole entry): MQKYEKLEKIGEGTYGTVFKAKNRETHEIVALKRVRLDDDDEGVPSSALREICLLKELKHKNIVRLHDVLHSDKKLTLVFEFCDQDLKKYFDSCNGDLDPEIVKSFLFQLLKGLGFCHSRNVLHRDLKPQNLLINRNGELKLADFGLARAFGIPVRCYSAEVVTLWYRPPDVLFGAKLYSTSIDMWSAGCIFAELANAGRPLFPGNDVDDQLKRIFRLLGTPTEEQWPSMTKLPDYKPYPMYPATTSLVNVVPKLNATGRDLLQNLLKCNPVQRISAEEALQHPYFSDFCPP
Sequence of CDK5/CDK5R1 (Q15078 whole entry partner): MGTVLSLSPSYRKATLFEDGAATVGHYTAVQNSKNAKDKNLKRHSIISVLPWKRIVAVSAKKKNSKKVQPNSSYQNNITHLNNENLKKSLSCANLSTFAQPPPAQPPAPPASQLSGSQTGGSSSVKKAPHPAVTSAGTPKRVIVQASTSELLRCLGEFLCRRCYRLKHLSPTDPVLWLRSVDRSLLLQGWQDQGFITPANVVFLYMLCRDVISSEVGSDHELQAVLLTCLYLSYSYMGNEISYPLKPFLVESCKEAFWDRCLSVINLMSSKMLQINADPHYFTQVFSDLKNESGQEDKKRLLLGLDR

[6] = target: CDK6/Cyclin D1 (Homo sapiens, UniProt Q00534); experiment: NanoBRET live-cell target engagement, NanoLuc-CDK6/Cyclin D1 in HEK-293; format: binding; settings: CDK6/D1, 10µM
[7] = target: CDK7 (Homo sapiens, UniProt P50613); experiment: NanoBRET live-cell target engagement, NanoLuc-CDK7 in HEK-293; format: binding; settings: CDK7, 10µM
[8] = target: CDK8/Cyclin C (Homo sapiens, UniProt P49336); experiment: NanoBRET live-cell target engagement, NanoLuc-CDK8/Cyclin C in HEK-293; format: binding; settings: CDK8/C, 10µM
[9] = target: CDK9/Cyclin K (Homo sapiens, UniProt P50750); experiment: NanoBRET live-cell target engagement, NanoLuc-CDK9/Cyclin K in HEK-293; format: binding; settings: CDK9/K, 10µM
[10] = target: T1, CDK11A/Cyclin L2 (Homo sapiens, UniProt Q9UQ88); experiment: NanoBRET live-cell target engagement, CDK11A-NanoLuc/Cyclin L2 in HEK-293; format: binding; settings: CDK11a/L2, 10µM
T1 sequence (Q9UQ88 1-783): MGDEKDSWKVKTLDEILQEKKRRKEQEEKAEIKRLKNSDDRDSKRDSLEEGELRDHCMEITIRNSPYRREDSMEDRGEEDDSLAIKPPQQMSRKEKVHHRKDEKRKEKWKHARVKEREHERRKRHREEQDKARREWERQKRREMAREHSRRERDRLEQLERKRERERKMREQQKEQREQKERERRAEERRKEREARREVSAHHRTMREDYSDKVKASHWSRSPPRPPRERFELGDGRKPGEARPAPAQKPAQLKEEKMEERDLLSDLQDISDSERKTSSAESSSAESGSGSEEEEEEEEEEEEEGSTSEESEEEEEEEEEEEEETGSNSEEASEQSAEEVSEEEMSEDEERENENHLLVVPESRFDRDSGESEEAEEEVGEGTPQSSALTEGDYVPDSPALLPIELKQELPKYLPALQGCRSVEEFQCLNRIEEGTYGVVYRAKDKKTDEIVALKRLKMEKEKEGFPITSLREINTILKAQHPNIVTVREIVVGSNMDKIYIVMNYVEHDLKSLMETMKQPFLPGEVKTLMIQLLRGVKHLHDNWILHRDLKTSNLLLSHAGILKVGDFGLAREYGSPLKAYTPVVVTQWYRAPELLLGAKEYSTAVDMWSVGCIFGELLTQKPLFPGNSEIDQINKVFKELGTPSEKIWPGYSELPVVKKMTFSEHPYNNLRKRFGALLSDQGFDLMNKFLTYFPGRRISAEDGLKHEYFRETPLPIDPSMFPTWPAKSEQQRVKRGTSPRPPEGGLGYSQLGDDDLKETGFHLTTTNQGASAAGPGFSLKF

[11] = target: CDK11B/Cyclin L2 (Homo sapiens, UniProt P21127); experiment: NanoBRET live-cell target engagement, CDK11B-NanoLuc/Cyclin L2 in HEK-293; format: binding; settings: CDK11b/L2, 10µM
[12] = target: CDK12/Cyclin K (Homo sapiens, UniProt Q9NYV4); experiment: NanoBRET live-cell target engagement, CDK12-NanoLuc/Cyclin K in HEK-293; format: binding; settings: CDK12/K, 10µM
[13] = target: CDK13/Cyclin K (Homo sapiens, UniProt Q14004); experiment: NanoBRET live-cell target engagement, CDK13-NanoLuc/Cyclin K in HEK-293; format: binding; settings: CDK13/K, 10µM
Sequence of CDK13/Cyclin K (O75909 whole entry): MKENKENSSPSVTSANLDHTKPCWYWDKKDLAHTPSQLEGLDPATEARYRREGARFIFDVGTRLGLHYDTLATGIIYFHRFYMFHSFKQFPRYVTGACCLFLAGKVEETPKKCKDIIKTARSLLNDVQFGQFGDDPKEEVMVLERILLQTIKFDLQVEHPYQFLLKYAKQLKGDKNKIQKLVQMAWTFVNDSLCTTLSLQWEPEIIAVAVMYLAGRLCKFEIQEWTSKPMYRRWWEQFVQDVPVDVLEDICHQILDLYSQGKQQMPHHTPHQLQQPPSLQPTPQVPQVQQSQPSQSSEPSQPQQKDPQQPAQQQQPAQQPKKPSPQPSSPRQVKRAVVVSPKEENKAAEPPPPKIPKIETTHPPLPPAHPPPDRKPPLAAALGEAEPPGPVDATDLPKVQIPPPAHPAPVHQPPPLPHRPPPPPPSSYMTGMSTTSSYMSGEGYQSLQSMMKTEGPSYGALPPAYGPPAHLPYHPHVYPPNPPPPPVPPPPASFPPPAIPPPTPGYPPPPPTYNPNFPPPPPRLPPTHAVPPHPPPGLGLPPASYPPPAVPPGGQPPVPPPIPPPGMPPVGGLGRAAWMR
Sequence of CDK13/Cyclin K (Q14004 other isoform, or with tags, fused parts or gaps): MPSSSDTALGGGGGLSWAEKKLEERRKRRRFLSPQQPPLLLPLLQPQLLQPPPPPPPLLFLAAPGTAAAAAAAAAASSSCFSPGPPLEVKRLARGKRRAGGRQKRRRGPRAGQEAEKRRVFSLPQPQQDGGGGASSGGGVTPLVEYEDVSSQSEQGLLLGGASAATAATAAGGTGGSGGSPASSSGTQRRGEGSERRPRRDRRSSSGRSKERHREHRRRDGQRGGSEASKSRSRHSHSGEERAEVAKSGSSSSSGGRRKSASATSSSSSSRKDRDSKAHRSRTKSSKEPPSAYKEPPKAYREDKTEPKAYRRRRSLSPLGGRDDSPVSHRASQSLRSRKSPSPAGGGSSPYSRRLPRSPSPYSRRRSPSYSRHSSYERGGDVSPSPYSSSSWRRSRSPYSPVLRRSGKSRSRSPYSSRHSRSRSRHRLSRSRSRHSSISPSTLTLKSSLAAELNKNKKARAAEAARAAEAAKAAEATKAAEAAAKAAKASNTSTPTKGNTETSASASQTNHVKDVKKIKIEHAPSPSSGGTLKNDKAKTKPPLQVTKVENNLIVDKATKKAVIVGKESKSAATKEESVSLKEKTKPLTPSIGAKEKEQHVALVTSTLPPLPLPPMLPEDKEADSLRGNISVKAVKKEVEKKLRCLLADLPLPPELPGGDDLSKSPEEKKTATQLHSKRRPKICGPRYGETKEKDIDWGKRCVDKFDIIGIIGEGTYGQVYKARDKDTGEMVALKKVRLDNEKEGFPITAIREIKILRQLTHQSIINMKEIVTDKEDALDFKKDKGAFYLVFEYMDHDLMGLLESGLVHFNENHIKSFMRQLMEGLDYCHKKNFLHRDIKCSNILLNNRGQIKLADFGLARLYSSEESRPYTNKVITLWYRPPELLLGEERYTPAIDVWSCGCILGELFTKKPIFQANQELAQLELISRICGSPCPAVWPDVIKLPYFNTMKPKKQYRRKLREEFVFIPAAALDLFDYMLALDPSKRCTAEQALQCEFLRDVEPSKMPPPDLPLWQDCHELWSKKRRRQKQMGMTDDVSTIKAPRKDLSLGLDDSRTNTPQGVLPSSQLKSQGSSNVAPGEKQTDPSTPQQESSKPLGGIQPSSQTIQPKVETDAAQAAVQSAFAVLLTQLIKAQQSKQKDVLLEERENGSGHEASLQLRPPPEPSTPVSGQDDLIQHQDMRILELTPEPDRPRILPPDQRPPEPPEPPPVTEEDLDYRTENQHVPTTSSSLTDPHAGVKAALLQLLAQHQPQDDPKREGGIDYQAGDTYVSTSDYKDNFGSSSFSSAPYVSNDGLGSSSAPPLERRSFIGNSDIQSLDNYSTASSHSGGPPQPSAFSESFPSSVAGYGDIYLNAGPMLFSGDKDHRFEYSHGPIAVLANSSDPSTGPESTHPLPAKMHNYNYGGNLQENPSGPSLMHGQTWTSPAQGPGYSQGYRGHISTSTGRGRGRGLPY

[14] = target: CDK14/Cyclin Y (Homo sapiens, UniProt O94921); experiment: NanoBRET live-cell target engagement, CDK14-NanoLuc/Cyclin Y in HEK-293; format: binding; settings: CDK14/Y, 10µM
[15] = target: CDK15/Cyclin Y (Homo sapiens, UniProt Q96Q40); experiment: NanoBRET live-cell target engagement, NanoLuc-CDK15/Cyclin Y in HEK-293; format: binding; settings: CDK15/Y, 10µM
[16] = target: CDK16/Cyclin Y (Homo sapiens, UniProt Q00536); experiment: NanoBRET live-cell target engagement, CDK16-NanoLuc/Cyclin Y in HEK-293; format: binding; settings: CDK16/Y; 10µM
[17] = target: CDK17/Cyclin Y (Homo sapiens, UniProt Q00537); experiment: NanoBRET live-cell target engagement, CDK17-NanoLuc/Cyclin Y in HEK-293; format: binding; settings: CDK17/Y, 10µM
Sequence of CDK17/Cyclin Y (Q00537 whole entry): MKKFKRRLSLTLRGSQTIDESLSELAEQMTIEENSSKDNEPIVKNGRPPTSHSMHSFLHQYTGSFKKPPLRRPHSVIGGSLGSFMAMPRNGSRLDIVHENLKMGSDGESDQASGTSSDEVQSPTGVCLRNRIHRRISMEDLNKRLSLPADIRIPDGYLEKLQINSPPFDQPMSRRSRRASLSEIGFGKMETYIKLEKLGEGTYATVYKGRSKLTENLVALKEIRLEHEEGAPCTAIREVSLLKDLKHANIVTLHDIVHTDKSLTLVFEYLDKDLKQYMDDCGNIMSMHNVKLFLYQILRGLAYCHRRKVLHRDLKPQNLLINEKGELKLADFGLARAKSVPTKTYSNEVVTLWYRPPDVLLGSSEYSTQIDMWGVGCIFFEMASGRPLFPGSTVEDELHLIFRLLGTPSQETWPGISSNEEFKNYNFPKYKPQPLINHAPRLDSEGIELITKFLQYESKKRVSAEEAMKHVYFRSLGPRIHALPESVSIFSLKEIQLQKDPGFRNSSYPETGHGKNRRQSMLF
Sequence of CDK17/Cyclin Y (Q8ND76 whole entry partner): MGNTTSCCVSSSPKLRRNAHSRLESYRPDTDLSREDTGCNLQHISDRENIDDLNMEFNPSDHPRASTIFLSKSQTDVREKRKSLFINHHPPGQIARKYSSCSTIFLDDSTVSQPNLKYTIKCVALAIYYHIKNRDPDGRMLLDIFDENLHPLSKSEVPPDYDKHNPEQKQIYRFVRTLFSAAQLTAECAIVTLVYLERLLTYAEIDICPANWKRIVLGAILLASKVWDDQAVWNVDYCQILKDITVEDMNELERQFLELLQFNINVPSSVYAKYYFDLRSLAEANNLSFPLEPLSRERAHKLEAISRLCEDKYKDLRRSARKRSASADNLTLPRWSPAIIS

[18] = target: CDK18/Cyclin Y (Homo sapiens, UniProt Q07002); experiment: NanoBRET live-cell target engagement, CDK18-NanoLuc/Cyclin Y in HEK-293; format: binding; settings: CDK18/Y, 10µM
Sequence of CDK18/Cyclin Y (Q07002 whole entry): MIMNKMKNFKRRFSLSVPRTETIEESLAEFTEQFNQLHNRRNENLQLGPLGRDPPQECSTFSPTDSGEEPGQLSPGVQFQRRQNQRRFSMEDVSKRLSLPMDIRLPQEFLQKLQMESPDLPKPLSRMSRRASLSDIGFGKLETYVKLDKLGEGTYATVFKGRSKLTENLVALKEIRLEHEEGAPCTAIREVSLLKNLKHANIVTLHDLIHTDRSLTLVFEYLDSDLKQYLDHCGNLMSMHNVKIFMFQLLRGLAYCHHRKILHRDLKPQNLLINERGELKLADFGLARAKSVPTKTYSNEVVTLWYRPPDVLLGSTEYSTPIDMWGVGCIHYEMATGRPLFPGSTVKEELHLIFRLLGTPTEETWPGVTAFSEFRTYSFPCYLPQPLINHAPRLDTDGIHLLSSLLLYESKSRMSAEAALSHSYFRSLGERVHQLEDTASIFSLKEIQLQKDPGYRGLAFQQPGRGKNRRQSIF
Sequence of CDK18/Cyclin Y (Q8ND76 whole entry partner): as the sequence (Q8ND76 whole entry partner) above

[19] = target: CDK20/Cyclin H (Homo sapiens, UniProt Q8IZL9); experiment: NanoBRET live-cell target engagement, NanoLuc-CDK20/Cyclin H in HEK-293; format: binding; settings: CDK20/H; 10µM
[20] = target: CDK19/Cyclin C (Homo sapiens, UniProt Q9BWU1); experiment: NanoBRET live-cell target engagement, NanoLuc-CDK19/Cyclin C in HEK-293; settings: CDK19/C, 10µM
[21] = target: CDK10/Cyclin L2 (Homo sapiens, UniProt Q15131); experiment: NanoBRET live-cell target engagement, CDK10-NanoLuc/Cyclin L2 in HEK-293; settings: CDK10/L2, 10µM

Inhibition at 10µM (%) Replicate 1 [1]: 46.5% | Inhibition at 10µM (%) Replicate 2 [1]: 41.5% | Inhibition at 10µM (%) Average ([1]; average of replicates): 44.0% | Inhibition at 10µM (%) Replicate 1 [2]: 75.6% | Inhibition at 10µM (%) Replicate 2 [2]: 76.1% | Inhibition at 10µM (%) Average ([2]; average of replicates): 75.9% | Inhibition at 10µM (%) Replicate 1 [3]: 72.1% | Inhibition at 10µM (%) Replicate 2 [3]: 71.8% | Inhibition at 10µM (%) Average ([3]; average of replicates): 72.0% | Inhibition at 10µM (%) Replicate 1 [4]: 19.9% | Inhibition at 10µM (%) Replicate 2 [4]: 22.3% | Inhibition at 10µM (%) Average ([4]; average of replicates): 21.1% | Inhibition at 10µM (%) Replicate 1 [5]: 69.5% | Inhibition at 10µM (%) Replicate 2 [5]: 71.6% | Inhibition at 10µM (%) Average ([5]; average of replicates): 70.6% | Inhibition at 10µM (%) Replicate 1 [6]: 6.0% | Inhibition at 10µM (%) Replicate 2 [6]: 6.7% | Inhibition at 10µM (%) Average ([6]; average of replicates): 6.4% | Inhibition at 10µM (%) Replicate 1 [7]: 45.0% | Inhibition at 10µM (%) Replicate 2 [7]: 59.3% | Inhibition at 10µM (%) Average ([7]; average of replicates): 52.2% | Inhibition at 10µM (%) Replicate 1 [8]: 6.6% | Inhibition at 10µM (%) Replicate 2 [8]: -1.1% | Inhibition at 10µM (%) Average ([8]; average of replicates): 2.7% | Inhibition at 10µM (%) Replicate 1 [9]: 18.8% | Inhibition at 10µM (%) Replicate 2 [9]: 27.7% | Inhibition at 10µM (%) Average ([9]; average of replicates): 23.2% | Inhibition at 10µM (%) Replicate 1 [10]: 8.6% | Inhibition at 10µM (%) Replicate 2 [10]: 33.3% | Inhibition at 10µM (%) Average ([10]; average of replicates): 21.0% | Inhibition at 10µM (%) Replicate 1 [11]: 11.4% | Inhibition at 10µM (%) Replicate 2 [11]: 7.8% | Inhibition at 10µM (%) Average ([11]; average of replicates): 9.6% | Inhibition at 10µM (%) Replicate 1 [12]: 4.1% | Inhibition at 10µM (%) Replicate 2 [12]: -13.6% | Inhibition at 10µM (%) Average ([12]; average of replicates): -4.7% | Inhibition at 10µM (%) Replicate 1 [13]: 7.7% | Inhibition at 10µM (%) Replicate 2 [13]: -21.5% | Inhibition at 10µM (%) Average ([13]; average of replicates): -6.9% | Inhibition at 10µM (%) Replicate 1 [14]: 8.2% | Inhibition at 10µM (%) Replicate 2 [14]: 16.5% | Inhibition at 10µM (%) Average ([14]; average of replicates): 12.3% | Inhibition at 10µM (%) Replicate 1 [15]: 25.0% | Inhibition at 10µM (%) Replicate 2 [15]: 29.8% | Inhibition at 10µM (%) Average ([15]; average of replicates): 27.4% | Inhibition at 10µM (%) Replicate 1 [16]: 15.7% | Inhibition at 10µM (%) Replicate 2 [16]: 16.9% | Inhibition at 10µM (%) Replicate 1 [17]: 29.1% | Inhibition at 10µM (%) Replicate 2 [17]: 25.1% | Inhibition at 10µM (%) Average ([17]; average of replicates): 27.1% | Inhibition at 10µM (%) Replicate 1 [18]: 37.9% | Inhibition at 10µM (%) Replicate 2 [18]: 40.9% | Inhibition at 10µM (%) Average ([18]; average of replicates): 39.4% | Inhibition at 10µM (%) Replicate 1 [19]: 16.2% | Inhibition at 10µM (%) Replicate 2 [19]: 18.8% | Inhibition at 10µM (%) Replicate 1 [20]: 16.0% | Inhibition at 10µM (%) Replicate 2 [20]: -0.8% | Inhibition at 10µM (%) Average ([20]; average of replicates): 7.6% | Inhibition at 10µM (%) Replicate 1 [21]: 13.4% | Inhibition at 10µM (%) Replicate 2 [21]: 27.0% | Inhibition at 10µM (%) Average ([21]; average of replicates): 20.2%
Compound: CCC(CO)Nc1nc(Nc2cccc(-c3ccccn3)c2)c2ncn(C(C)C)c2n1.Cl.O [(R) - DRF053]
